Laboratory results as given in patent publication US10053455B2, “Diazaspiroalkaneone-substituted oxazole derivatives as spleen tyrosine kinase inhibitors” (AB SCIENCE, priority 2014, dated 2018).

How the values were obtained:
Jak3 = Jak3 (Homo sapiens (Human), UniProt P52333); assay: HTRF kinase assay, Jak3; type: biochemical; settings: enzymatic determination
Method: (§1) Most of the kinases tested in this study were cloned, expressed and purified in the facilities of the inventors. They were expressed either as N-terminus hexahistidine-, hexahistidine-asparagine- or GST-tagged enzymes in a baculovirus or in a Colibacille expression system. Remaining enzymes (JAKs) were purchased from Millipore or Proqinase. For each enzyme, steady state kinetic parameters were determined and validated with known inhibitors.
(§2) The analysis of the effect of compounds on kinase activity was assessed with the HTRF® KinEASE assay (Cisbio International), an immuno-assay based on the quantification of the level of phosphorylation of a biotinylated peptide substrate using anti-phospho-specific antibody labeled with Europium (Eu^3+) cryptate. This assay comprises two steps: —an enzymatic step, during which the peptide substrate, the kinase, ATP, Mg^2+ and/or Mn^2+ are incubated with varying concentration of drug (from 0 to 10 μM); —a detection step, at the end of the reaction (stopped by addition of EDTA which chelates Mg^2+), the antibody anti-phospho peptide-Eu^3+ (emission 620 nm) and streptavidin XL-665 (emission 665 nm) are added to the reaction mix. […] Results are expressed in delta fluorescence (DF) unit defined as follow DF %=[(ratio−ratio blank)/(ratio blank)]*100, where ratio=(665 nm/620 nm)*10^4. […]

IL6 = assay: FcεRI and Kit-induced IL6 cytokine release in BMMCs; type: cell-based, C57BL/6J mice
Method: (§3) Murine bone marrow mast cells (BMMCs) are obtained by flushing bone marrow cells from the femurs of C57BL/6J mice, and then cultured for 3-4 weeks in RPMI containing mouse recombinant IL-3 (30 ng/ml). Cells were sensitized overnight in IL3-depleted culture medium with 0.1-0.2 μg/ml anti-DNP-IgE (Sigma-Aldrich D8406). Cells were preincubated with inhibitors for 30 min, and then stimulated with 10 ng/ml antigen (Ag) and/or Stem Cell Factor (SCF) (30 ng/ml). The cells were incubated for 6 h. The supernatants were harvested, and the cytokine content measured using CISBIO IL6 and TNFα HTRF assay (cat#63ADKEBU043 and 6FMTNPEB respectively).

c-Met = c-Met (Homo sapiens (Human), UniProt P08581); assay: HTRF kinase assay, c-Met; type: biochemical; settings: enzymatic determination
c-Met, sequence (P08581 25-1390): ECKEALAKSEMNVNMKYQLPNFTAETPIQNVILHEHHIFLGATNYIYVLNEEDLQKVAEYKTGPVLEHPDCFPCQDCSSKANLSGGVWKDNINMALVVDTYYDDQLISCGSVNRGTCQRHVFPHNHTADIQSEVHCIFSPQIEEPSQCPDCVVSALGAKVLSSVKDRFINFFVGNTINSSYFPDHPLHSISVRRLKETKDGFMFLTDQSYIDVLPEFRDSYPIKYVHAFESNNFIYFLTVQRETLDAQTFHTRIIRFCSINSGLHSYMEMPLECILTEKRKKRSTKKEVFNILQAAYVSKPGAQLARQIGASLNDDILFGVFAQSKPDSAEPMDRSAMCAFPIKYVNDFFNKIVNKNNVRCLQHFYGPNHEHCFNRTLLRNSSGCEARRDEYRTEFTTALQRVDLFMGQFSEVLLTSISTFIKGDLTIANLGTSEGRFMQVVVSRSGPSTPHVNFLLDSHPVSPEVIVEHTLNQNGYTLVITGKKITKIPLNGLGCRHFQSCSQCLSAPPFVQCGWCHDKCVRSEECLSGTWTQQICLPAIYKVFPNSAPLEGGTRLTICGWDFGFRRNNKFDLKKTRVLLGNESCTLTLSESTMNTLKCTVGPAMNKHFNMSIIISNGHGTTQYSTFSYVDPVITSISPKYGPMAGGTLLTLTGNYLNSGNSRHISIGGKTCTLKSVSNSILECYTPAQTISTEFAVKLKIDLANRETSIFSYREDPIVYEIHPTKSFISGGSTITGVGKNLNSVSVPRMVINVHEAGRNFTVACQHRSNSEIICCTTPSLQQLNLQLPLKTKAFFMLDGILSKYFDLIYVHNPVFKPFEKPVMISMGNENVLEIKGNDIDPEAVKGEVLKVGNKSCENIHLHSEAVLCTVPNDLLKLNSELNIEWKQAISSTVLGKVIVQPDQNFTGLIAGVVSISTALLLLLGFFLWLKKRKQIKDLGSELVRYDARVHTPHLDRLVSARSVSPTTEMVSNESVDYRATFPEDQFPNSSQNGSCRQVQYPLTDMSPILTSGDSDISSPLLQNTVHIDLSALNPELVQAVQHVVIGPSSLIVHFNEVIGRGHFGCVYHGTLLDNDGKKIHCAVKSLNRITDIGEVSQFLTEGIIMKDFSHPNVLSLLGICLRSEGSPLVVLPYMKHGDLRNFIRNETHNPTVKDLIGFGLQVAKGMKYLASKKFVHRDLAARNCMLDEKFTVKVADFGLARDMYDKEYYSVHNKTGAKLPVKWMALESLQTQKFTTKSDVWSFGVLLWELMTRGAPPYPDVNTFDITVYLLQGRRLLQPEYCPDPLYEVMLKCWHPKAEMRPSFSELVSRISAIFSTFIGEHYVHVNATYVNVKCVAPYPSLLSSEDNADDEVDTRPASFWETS
Method: as §1, §2

KIT wild-type = KIT wild-type (Homo sapiens (Human), UniProt P10721); assay: Cell-based proliferation assay on BaF3 model, KIT wild-type
KIT wild-type, sequence (P10721 26-976, species assumed): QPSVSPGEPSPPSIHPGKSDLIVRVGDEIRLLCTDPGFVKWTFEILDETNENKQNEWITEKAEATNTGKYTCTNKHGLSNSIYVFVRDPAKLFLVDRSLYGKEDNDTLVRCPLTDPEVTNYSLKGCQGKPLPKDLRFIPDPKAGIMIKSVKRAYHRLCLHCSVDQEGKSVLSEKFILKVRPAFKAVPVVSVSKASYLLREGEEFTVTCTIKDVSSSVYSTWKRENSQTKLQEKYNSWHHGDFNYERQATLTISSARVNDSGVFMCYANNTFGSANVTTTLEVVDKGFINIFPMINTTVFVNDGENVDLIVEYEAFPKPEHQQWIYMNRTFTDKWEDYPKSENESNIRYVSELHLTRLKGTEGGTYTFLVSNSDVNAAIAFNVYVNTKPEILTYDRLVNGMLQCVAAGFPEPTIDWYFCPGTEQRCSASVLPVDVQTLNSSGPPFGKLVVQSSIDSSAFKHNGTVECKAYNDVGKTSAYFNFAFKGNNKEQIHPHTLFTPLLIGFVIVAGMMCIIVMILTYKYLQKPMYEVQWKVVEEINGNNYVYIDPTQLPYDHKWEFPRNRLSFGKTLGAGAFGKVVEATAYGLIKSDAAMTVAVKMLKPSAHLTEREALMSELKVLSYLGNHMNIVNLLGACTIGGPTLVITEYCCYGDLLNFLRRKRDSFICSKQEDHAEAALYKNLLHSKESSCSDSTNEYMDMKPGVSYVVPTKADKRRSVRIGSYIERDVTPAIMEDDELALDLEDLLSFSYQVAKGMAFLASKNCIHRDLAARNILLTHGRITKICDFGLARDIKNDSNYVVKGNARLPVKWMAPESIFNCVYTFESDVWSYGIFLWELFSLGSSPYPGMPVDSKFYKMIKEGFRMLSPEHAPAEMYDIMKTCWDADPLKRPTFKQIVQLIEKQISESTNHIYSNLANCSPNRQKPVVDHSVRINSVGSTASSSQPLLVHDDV
Method: (§4) Cell-based proliferation and viability assay CellTiter-Bleue cell-based survival/proliferation assay (Promega G8080) was performed on BaF3 models.
(§5) A total of 1.10^4 cells/well/50 μl were seeded in a 96-wells plate. Treatment was initiated by addition of a 2× drug solution of ½ serial dilutions ranging from 0 to 10 μM. Cells were grown for 48-72 h at 37° C. and then incubated with 10 μl/well of Promega CellTiter-Bleue reagent for 4 h at 37° C. The amount of formazan dye formed was quantified by its absorbance at 450 nm using a scanning multiwell spectrophotometer (POLARstar Omega, BMG labtech, France). A blank well without cells was used as a background control for the spectrophotometer and all assays were performed in duplicates and the experiments were repeated at least twice.

TNFα = assay: FcεRI and Kit-induced TNFα cytokine release in BMMCs; type: cell-based, C57BL/6J mice
Method: as §3

[1] = test system: Murine bone marrow mast cells (BMMCs); assay: IgE-mediated mast cell degranulation assay (β-hexosaminidase release); type: cell-based, C57BL/6J mice; settings: Mus musculus, BMMC
Method: In vitro mast cell degranulation assay monitored by released of β-hexosaminidase. Murine bone marrow mast cells (BMMCs) are obtained by flushing bone marrow cells from the femurs of C57BL/6J mice, then cultured for 3-4 weeks in RPMI containing mouse recombinant IL-3 (30 ng/ml). RBL-2H3 is a rat basophile cell line maintained in monolayer culture in EMEM supplemented with 20% FCS, 1 mM Glutamine and 1× antibiotics. Cells were sensitized overnight with 0.2 μg/ml anti-DNP-IgE (Sigma-Aldrich D8406). […] After incubation 90 min at 37° C., the reaction was quenched by addition of 100 μl of sodium carbonate buffer (0.1M Na2CO3/NaHCO3 pH 10.0). β-hexosaminidase activity was quantified by reading plate absorbance at 405 nm with reference at 620 nm using a PolarSTAR reader plate (BMG labech).
The activity of anti-SYK compounds was tested in an IgE-mediated mast cell degranulation assay. SYK has been identified to be critical for the initiation of mast cell mediator release following the aggregation of FcεRI.

Flt3 = Flt3 (Homo sapiens (Human), UniProt P36888); assay: Cell-based proliferation assay on BaF3 model, Flt3
Flt3, sequence (P36888 27-993, species assumed): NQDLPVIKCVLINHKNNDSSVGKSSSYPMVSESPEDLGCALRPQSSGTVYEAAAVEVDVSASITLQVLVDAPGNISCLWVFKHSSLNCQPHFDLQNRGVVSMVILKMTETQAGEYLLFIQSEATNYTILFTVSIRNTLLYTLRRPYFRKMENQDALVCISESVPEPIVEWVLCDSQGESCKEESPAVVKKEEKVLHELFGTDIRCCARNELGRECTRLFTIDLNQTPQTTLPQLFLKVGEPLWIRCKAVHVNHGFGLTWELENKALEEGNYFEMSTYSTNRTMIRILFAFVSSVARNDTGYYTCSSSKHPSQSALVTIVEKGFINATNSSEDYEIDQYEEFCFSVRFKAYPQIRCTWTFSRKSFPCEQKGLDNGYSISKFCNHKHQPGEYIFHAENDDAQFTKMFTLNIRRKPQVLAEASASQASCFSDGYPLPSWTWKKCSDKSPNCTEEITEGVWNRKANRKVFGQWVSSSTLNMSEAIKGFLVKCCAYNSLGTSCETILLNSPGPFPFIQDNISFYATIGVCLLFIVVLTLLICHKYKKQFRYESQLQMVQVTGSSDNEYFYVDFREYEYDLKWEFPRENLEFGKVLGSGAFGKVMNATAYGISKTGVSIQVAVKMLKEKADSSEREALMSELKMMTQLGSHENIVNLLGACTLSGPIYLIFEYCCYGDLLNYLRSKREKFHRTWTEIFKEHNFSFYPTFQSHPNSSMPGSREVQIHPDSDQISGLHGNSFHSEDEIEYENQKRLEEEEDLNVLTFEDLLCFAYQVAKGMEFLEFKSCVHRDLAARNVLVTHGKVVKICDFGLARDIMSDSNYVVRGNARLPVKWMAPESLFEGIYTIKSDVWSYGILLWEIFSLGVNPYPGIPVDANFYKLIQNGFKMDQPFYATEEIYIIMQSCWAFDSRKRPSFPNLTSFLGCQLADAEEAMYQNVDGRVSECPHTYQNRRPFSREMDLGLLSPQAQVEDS
Method: as §4, §5

Src = Src (Homo sapiens (Human), UniProt P12931); assay: HTRF kinase assay, Src; type: biochemical; settings: enzymatic determination
Src, sequence (P12931 whole entry, looked up, species assumed): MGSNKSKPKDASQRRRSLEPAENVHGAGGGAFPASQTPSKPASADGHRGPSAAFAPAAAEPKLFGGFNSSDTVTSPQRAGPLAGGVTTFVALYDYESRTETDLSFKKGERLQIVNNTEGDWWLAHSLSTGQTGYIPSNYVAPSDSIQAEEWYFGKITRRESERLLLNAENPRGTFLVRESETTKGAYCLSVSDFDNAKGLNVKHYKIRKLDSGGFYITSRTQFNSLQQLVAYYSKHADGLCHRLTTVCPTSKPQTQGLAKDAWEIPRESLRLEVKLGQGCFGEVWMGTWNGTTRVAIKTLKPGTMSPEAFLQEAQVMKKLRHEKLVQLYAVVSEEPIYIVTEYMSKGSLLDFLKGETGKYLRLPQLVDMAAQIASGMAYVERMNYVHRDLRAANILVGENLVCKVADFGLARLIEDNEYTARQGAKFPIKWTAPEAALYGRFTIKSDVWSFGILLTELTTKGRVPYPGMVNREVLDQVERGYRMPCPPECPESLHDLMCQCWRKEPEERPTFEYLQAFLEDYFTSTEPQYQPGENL
Method: as §1, §2

Jak3, sequence (P52333 whole entry): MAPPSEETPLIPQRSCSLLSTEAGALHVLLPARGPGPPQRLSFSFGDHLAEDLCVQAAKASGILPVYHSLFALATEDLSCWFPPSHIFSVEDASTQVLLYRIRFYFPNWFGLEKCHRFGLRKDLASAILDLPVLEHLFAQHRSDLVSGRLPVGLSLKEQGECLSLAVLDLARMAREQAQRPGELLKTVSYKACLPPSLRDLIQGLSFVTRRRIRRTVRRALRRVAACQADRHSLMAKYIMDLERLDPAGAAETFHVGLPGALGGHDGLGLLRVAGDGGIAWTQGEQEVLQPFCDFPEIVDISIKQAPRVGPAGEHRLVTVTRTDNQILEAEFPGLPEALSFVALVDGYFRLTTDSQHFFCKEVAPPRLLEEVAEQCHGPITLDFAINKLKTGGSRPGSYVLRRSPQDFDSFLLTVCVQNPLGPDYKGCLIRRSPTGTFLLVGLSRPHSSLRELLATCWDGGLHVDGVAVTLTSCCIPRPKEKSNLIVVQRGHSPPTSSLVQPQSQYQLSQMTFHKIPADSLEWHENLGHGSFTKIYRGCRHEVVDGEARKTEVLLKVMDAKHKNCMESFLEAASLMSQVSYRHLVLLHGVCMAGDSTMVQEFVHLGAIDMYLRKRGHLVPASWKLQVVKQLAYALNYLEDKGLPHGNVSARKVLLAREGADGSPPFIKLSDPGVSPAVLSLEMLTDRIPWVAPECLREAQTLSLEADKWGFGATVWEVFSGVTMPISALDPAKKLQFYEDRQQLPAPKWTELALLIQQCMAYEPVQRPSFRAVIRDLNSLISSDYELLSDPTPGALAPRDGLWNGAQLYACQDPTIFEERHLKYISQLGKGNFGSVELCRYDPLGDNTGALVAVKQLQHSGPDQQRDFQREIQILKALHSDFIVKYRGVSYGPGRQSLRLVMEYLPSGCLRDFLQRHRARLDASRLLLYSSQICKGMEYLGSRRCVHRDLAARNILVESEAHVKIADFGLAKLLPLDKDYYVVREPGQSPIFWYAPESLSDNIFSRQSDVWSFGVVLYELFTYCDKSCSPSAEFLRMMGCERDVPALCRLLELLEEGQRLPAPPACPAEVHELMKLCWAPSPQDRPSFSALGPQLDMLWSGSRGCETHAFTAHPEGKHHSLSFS

## Cc1ccnc(Nc2cccc(-c3cnc(N4CCNC(=O)C45CC5)o3)c2)n1 [Compound 001, 4-{5-[3-(4-Methyl-pyrimidin-2-ylamino)-phenyl]-oxazol-2-yl}-4,7-diaza-spiro[2.5]octan-8-one]
Jak3
  IC50: 20 µM
IL6; Ag + SCF + 0.01 μM of compound
  IL6 Cytokine Release (% relative to control Ag + SCF): 89%
  IL6 Cytokine Release (Relative Fluorescence Units): 756.5 Relative Fluorescence Units
IL6; Ag + SCF + 0.1 μM of compound
  IL6 Cytokine Release (% relative to control Ag + SCF): 29%
  IL6 Cytokine Release (Relative Fluorescence Units): 249 Relative Fluorescence Units
IL6; Ag + SCF + 1 μM of compound
  IL6 Cytokine Release (% relative to control Ag + SCF): 6%
  IL6 Cytokine Release (Relative Fluorescence Units): 54 Relative Fluorescence Units
IL6; Mus musculus, BMMC, Ag + SCF stimulated BMMCs, read-out: IL-6 release IC50
  IC50: ~0.05 µM
c-Met
  IC50: 10 µM
KIT wild-type
  IC50: 10 µM
TNFα; Ag + SCF + 0.01 μM of compound
  TNFα Cytokine Release (% relative to control Ag + SCF): 95%
  TNFα Cytokine Release (Relative Fluorescence Units): 468 Relative Fluorescence Units
TNFα; Ag + SCF + 0.1 μM of compound
  TNFα Cytokine Release (% relative to control Ag + SCF): 32%
  TNFα Cytokine Release (Relative Fluorescence Units): 158 Relative Fluorescence Units
TNFα; Ag + SCF + 1 μM of compound
  TNFα Cytokine Release (% relative to control Ag + SCF): 2%
  TNFα Cytokine Release (Relative Fluorescence Units): 9.5 Relative Fluorescence Units
TNFα; Mus musculus, BMMC, Ag + SCF stimulated BMMCs
  IC50: ~0.05 µM
[1]; 0.01 μM, read-out: β-hexosaminidase activity (% control untreated cells)
  activity at 0.01 µM: 88 ± 14%
[1]; 0.1 μM, read-out: β-hexosaminidase activity (% control untreated cells)
  activity at 0.1 µM: 32 ± 9%
[1]; 1 μM, read-out: β-hexosaminidase activity (% control untreated cells)
  activity at 1 µM: 3 ± 5%
[1]; read-out: inhibiting mast cell degranulation IC50
  IC50: 0.05 µM
Flt3
  IC50: 6 µM
Src
  IC50: 2.6 µM
